This note sets out measurements from patent US11358972B2, “Pentacyclic heterocycles” (Eisai R&D Management Co., Ltd., priority 2019, dated 2022).

Assay [1] relates to Choline Acetyltransferase (ChAT) mRNA. In words: Measurement of choline acetyltransferase (ChAT) mRNA expression levels in the rat septal area. It counts as in vivo. The following applies: po, SD male rats, medial septum, 24 hours after administration, read-out: Amount (%) increased from the amount of ChAT mRNA expression levels in the vehicle administration group; for change in vivo at 1 mg/kg: 1 mg/kg orally. As for the experimental part:
Measurement of Choline Acetyltransferase (ChAT) mRNA Expression Levels in the Rat Septal Area (1) Compound Administration
In this study, Sprague-Dawley male rats (Charles River Laboratories Japan, Inc.) with a body weight of about 250 to 350 g were used. The test compound was dissolved in 0.01 mol/L hydrochloric acid, and orally administered.
At 24 hours after the administration of the compound, the whole brain tissue was collected under pentobarbital anesthesia. The medial septum was isolated from whole brain on ice and frozen with liquid nitrogen, and then stored at −80° C.
(3) Measurement of ChAT mRNA Expression Levels
For RNA purification, RNeasy™ Plus Mini Kit (#74136: QIAGEN) was used in this study. RNA purification was performed by the method described in the kit After RNA purification, the total RNA concentration was measured by using QIAxpert Instrument (QIAGEN). cDNA was synthesized using SuperScript™ VILO™ cDNA Synthesis Kit (#11754: Thermo Fisher Scientific). The synthesis of cDNA was performed by the method described in the kit. The synthesized cDNA was diluted 4 times with RNase free water, and the diluted cDNA solution was used as a sample. Taqman™ Universal PCR Master Mix (#4304437: Thermo Fisher Scientific), Taqman™ Gene Expression Assays, INVENTORIED (#4331182: Thermo Fisher Scientific), RNase free water, and the cDNA solution were mixed in amounts of 10 μL, 1 μL, 4 μL, and 5 μL, respectively, and the resulting mixture was used as a measurement sample solution. Quantitative polymerase chain reaction (qPCR) was conducted using ABI PRISM™ 7900HT (Thermo Fisher Scientific) by a fluorescence probe method. Analysis was performed by SDS 2.4 (Thermo Fisher Scientific). The results were calculated by the percentage of the amount of ChAT mRNA expression levels in the compound administration group increased from the amount of ChAT mRNA expression levels in the vehicle administration group.

Assay [2] has as its system Rat primary septal neuron culture. Put plainly: Measurement of acetylcholine (ACh) release in the rat primary septal neuron culture system. It counts as cell-based. To be noted: 24 h, rat primary septal neurons, with NGF, ACh release measured by HPLC one day after compound addition, read-out: Concentration (μM) showing a 20% or more increase from the amount of ACh in the control group. An excerpt:
Measurement of Acetylcholine (ACh) Release in the Rat Primary Septal Neuron Culture System
(1) Rat Primary Septal Neuron Culture
The septal area was isolated from Sprague-Dawley (SD) rats (Charles River Laboratories Japan, Inc.) at a fetal age of 18 days, and cultured. Specifically, fetuses were removed from pregnant rats under isoflurane anesthesia. The brain was extracted from each fetus, and immersed in ice-cooled L-15 medium (11415-064, Thermo Fisher Scientific). The septal area was dissected from the extracted brain under a stereoscopic microscope. The dissected septal area was treated in 0.25% trypsin (15050-065, Thermo Fisher Scientific) and 0.01% DNase (D5025-150KU, Sigma) at 37° C. for 30 minutes, thereby dispersing the cells. In this case, the enzyme reaction was terminated by adding inactivated horse serum (26050-088, Thermo Fisher Scientific). The enzyme-treated solution was centrifuged at 1000 rpm for 3 minutes, and the supernatant was removed. A medium in an amount of 10 mL was added to the obtained cell mass. The medium used was Dulbecco's Modified Eagle's Medium (044-29765, WAKO) supplemented with N2 supplement (17502-048, Thermo Fisher Scientific), 1 mM sodium pyruvate (11360-070, Thermo Fisher Scientific), and Penicillin-Streptomycin (15140-1221, Thermo Fisher Scientific). The cells of the cell mass to which the medium was added were redispersed by gentle pipetting, and then centrifuged again at 1000 rpm for 3 minutes, and the supernatant was removed. The medium in an amount of 10 mL was added to the obtained cell mass, and the cell dispersion was filtered through a 40-μm nylon mesh (Cell Strainer) to remove the cell mass, thereby obtaining a neuronal cell suspension. The neuronal cell suspension was diluted with the medium, and 10% inactivated bovine serum (26140-079, Thermo Fisher Scientific) and 10% inactivated horse serum were added. Thereafter, 100 μL/well of the suspension was seeded in a 96-well plate (354461, CORNING) pre-coated with poly-D-lysine so that the initial culture density was 1.2×10^5 cells/cm^2. After the seeded cells were cultured under 5% CO2-95% air in a 37° C. incubator for 2 days, the entire medium was replaced with 120 μL of fresh medium, and the cells were subsequently cultured for 5 days.
On the 7th day of culture, compounds were added in the following manner. A solution of the test compound in DMSO was diluted with the medium so that the concentration was 10 times higher than the final concentration. Nerve Growth Factor (450-01, PEPRO TECH, INC.) was prepared at […]. These two solutions were added each in an amount of 15 μL/well, and the mixture was mixed well. The final DMSO concentration was 0.1% or less. Moreover, only DMSO and NGF were added to the control group.
(3) ACh Release Measurement
One day after the compound addition, an amount of ACh release was measured by HPLC in the following manner. A warmed buffer was added at 100 μL/well to the well after the medium was eliminated, and the buffer was immediately removed. Thereafter, a buffer to which 10 μm choline, 10 μm physostigmine, and 6 mM KCl were added was added at 120 μL/well. The buffer was prepared by adding 125 mM NaCl, 25 mM 4-(2-hydroxyethyl)-1-piperazineethanesulfonic acid, 1.2 mM KH2PO4, 1.2 mM MgSO4, 2.2 mM CaCl2 (2H2O), and 10 mM glucose to sterilized water, and the final pH of the solution was set to 7.4. After the 96-well plate to which the buffer was added was incubated under 5% CO2-95% air in a 37° C. incubator for 40 minutes, 80 μL of buffer was collected. An internal standard solution IPHC (5×10^−7 M) was added in an amount of 6 μL to the collected buffer, and the buffer was transferred to a tube for HPLC measurement and subjected to HPLC measurement. […]

For the compound `CN1CCc2sc3c(=O)n4c(nc3c2C1)CN(C)C(=O)[C@@H]1CCC[C@H]14` [Example 14, (3aR,14aR)-5,9-dimethyl-2,3,3a,5,6,8,9,10,11,14a-decahydro-1H-cyclopenta[f]pyrido[3″,4″:4′,5′]thieno[3′,2′:4,5]pyrimido[1,2-a][1,4]diazepine-4,13-dione], the change in vivo at 1 mg/kg in assay [1] is 63.6%. Further, the minimal effective concentration in assay [2] came to 0.03 µM.

`CN1C[C@H]2C(=O)N(C)Cc3nc4sc5c(c4c(=O)n3[C@H]2C1)CC[C@@H](F)C5` [Example 15, (3aR,10R,14aR)-10-fluoro-2,5-dimethyl-2,3,3a,5,6,9,10,11,12,14a-decahydro-1H-benzo[4′,5′]thieno[2′,3′:4,5]pyrimido[1,2-a]pyrrolo[3,4-f][1,4]diazepine-4,13-dione]: in assay [1], the change in vivo at 1 mg/kg came to 49%. For the same compound, the minimal effective concentration in assay [2] was determined as 0.3 µM.

Turning to `COCCN1CCc2c(sc3nc4n(c(=O)c23)[C@H]2CCC[C@@H]2C(=O)N(C)C4)C1` [Example 16, (3aS,4aS)-10-(2-methoxyethyl)-5-methyl-2,3,3a,5,6,9,10,11,12,14a-decahydro-1H-cyclopenta[f]pyrido[4″,3″:4′,5′]thieno[2′,3′:4,5]pyrimido[1,2-a][1,4]diazepine-4,13-dione], the change in vivo at 3 mg/kg in assay [1] (3 mg/kg orally) is 42.5%. For the same compound, the minimal effective concentration in assay [2] came out at 0.03 µM.
